Experimental findings from patent US10183913B2, “Pyrazole compound” (Sumitomo Dainippon Pharma Co., Ltd., priority 2010, dated 2019) are described below.

Assay [1] addresses T1, human serotonin 2C receptor (h-5-HT2C) (Homo sapiens (Human), UniProt P28335). The assay is described as follows: 5-HT2C receptor agonistic action assay (FLIPR Calcium 4 Assay kit, h-5-HT2C/CHO cells). The class given is cell-based. As to conditions: test material 10 μmol/L; 100% = 10 μmol/L 5-HT, −100% = 10 μmol/L SB206553; below 0% = inverse agonistic action. The procedure: 3-1. The Cells and Inoculation Thereof
In the experiment, human serotonin 2C receptor (h-5-HT2C) was expressed in CHO cells (h-5-HT2C/CHO). The cells were incubated with UltraCHO Lipuid (trademark) (manufactured by BioWhitakker) containing 1% FBS, 400 μg/mL Geneticin, 100 U/mL penicillin—100 μg/mL streptomycin (all manufactured by Sigma Aldrich) and 250 μg/mL Zeosin (manufactured by InvivoGen) in an incubator containing 5% CO2. On the day before using the cells, they were detached and collected using 250 μg/mL Trypsin solution (manufactured by Nacalai Tesque), then inoculated in a 96 well flat clear bottom black polystyrene TC-treated microplates (manufactured by Corning) at 40000 cells/well/60 μL in an incubator containing 5% CO2 for 16 hours to 24 hours.
3-2. 5-HT2C Receptor Agonistic Action Assay
The 5-HT2C receptor agonistic action was evaluated with FLIPR Calcium 4 Assay kit (manufactured by Molecular Devices). In specific, to the cells inoculated in the plate were added Component A of FLIPR Calcium 4 Assay kit dissolved in 100 mL of HHBP buffer (1×Hanks buffer, 20 mmol/L HEPES, both manufactured by Gibco) at an amount of 40 μL/well, and the cells were incubated in an incubator containing 5% CO2 for 1 hour. Then, the cells were set in FLIPR TETRA (trademark) (manufactured by Molecular Devices), to the cells was added the test material diluted with HHBP buffer, 2.5 mmol/L Probenecid (manufactured by Sigma) (concentration after dilution: 10 μmol/L) at an amount of 20 μL/well, and the fluorescence was measured. Then, in order to evaluate the antagonistic action of the test material, 20 μL/well of 5-HT solution (manufactured by Sigma, final concentration: 0.1 nmol/L) was further added to the cells, and the fluorescence was measured.
The 5-HT2C receptor agonistic action of each test material was calculated as a rate of fluorescence enhancement wherein 100% was defined as a value when the cells were given 10 μmol/L 5-HT. Furthermore, the 5-HT2C receptor inverse agonistic action was calculated as a rate of fluorescence decay wherein −100% was defined as a value when the cells were given 10 μmol/L SB206553 (manufactured by Sigma Aldrich). A lower value of the 5-HT2C receptor agonistic action of the test material means that the material has a higher antagonistic action. In particular, when the value of the 5-HT2C receptor agonistic action of the test material is below 0%, the material has an inverse agonistic action for 5-HT2C receptor.

Assay [2] concerns the target human serotonin transporter (h-SERT) (Homo sapiens (Human), UniProt P31645). The assay can be described thus: [3H] citalopram binding assay to evaluate human serotonin reuptake inhibitory action (h-SERT binding assay). The procedure:
Citalopram Binding Assay to Evaluate Human Serotonin Reuptake Inhibitory Action
(§1) Preparation of the Cells and Membrane Preparations
In the experiment, human serotonin transporter (h-SERT) was expressed in CHO cells (h-SERT/CHO). The cells were incubated with F12 containing 10% FCS, 500 μg/mL Geneticin and 100 U/mL penicillin—100 μg/mL streptmycin (all manufactured by Sigma Aldrich) in an incubator containing 5% CO2; detached and collected using a SERT buffer [50 mmol/L Tris-HCl comprising 120 mmol/L NaCl and 5 mmol/L KCl (pH=7.4)]; homogenized with a homogenizer manufactured by Teflon (trademark); and then centrifuged (50,000×g, 30 min, 4° C.). The precipitate was suspended again in the appropriate amount of SERT buffer (to give a membrane preparation), and stored at −80° C. until used. The amount of protein in the membrane preparation was assayed by Dye Reagent Concentrate (manufactured by BIO-RAD) using bovine serum albumin (manufactured by Sigma Aldrich) as a standard.
1-2. h-SERT Binding Assay
The [^3H] citalopram binding was measured according to the method disclosed in Owens M. J. et al., J. Pharm. […] The solution was reacted at room temperature for 60 minutes, and then quickly suction-filtered under reduced pressure through a glass fiber filter coated with 0.05% aq. polyethyleneimine. The glass fiber filter was washed twice with […] of the SERT buffer, placed in a plastic vial containing 4 mL of liquid scintillator (ACS-II, manufactured by Amersham) or Ecoscint A (manufactured by National Diagnostics), and the remaining radioactivity on the filter paper was assayed with a liquid scintillation counter.

Assay [3] concerns the target T1, human serotonin 2C receptor (h-5-HT2C). The assay can be described thus: [3H] mesulergine binding assay to evaluate affinity for human 5-HT2C receptor. As to conditions: h-5-HT2C/CHO membrane preparation, read-out: Test Ex. 2: 5-HT2C receptor binding inhibition constant Ki. The procedure:
Mesulergine Binding Assay to Evaluate Affinity for Human 5-HT2C Receptor
as §1
In the experiment, human serotonin 2C receptor (h-5-HT2C) was expressed in CHO cells (h-5-HT2C/CHO). The cells were incubated with UltraCHO Lipuid (trademark) (manufactured by BioWhitakker) containing 1% FBS, 400 μg/mL Geneticin, 100 U/mL penicillin—100 μg/mL streptomycin (all manufactured by Sigma Aldrich) and 250 μg/mL Zeosin (manufactured by InvivoGen) in an incubator containing 5% CO2; detached and collected using 50 mmol/L Tris-HCl (pH=7.4); homogenized with a homogenizer manufactured by Teflon (trademark); and then centrifuged (48,000×g, 25 min, 4° C.). The precipitate was suspended again in the appropriate amount of 50 mmol/L Tris-HCl (to give a membrane preparation), and stored at −80° C. until used. The amount of protein in the membrane preparation was assayed by Dye Reagent Concentrate (manufactured by BIO-RAD) using bovine serum albumin (manufactured by Sigma Aldrich) as a standard.
2-2. 5-HT2C Receptor Binding Assay
A solution of 200 μL in total was prepared by mixing 50 μL of [^3H] mesulergine (manufactured by GE Healthcare) diluted with 50 mmol/L Tris-HCl (pH=7.4) (final concentration: about 2 nmol/L), 149 μL of the h-5-HT2C/CHO membrane preparation (protein amount: 20 μg/well), and 1 μL of the test drug dissolved in dimethylsulfoxide. The solution was reacted at 37° C. for 30 minutes, and then quickly suction-filtered under reduced pressure through a glass fiber filter coated with 1% aq. bovine serum albumin. The glass fiber filter was washed twice with 250 μL of 50 mmol/L Tris-HCl (pH=7.4), placed in a plastic vial containing 4 mL of liquid scintillator (ACS-II, manufactured by Amersham) or Ecoscint A (manufactured by National Diagnostics), and the remaining radioactivity on the filter paper was assayed with a liquid scintillation counter. The non-specific binding of [^3H] mesulergine was defined as a binding amount in the presence of 10 μmol/L SB206553 (manufactured by Sigma Aldrich). The IC50 value was calculated according to Hill analysis, and the binding inhibition constant (Ki) was calculated according to the following formula: Binding inhibition constant (Ki)=IC50/(1+S/Kd) wherein S is a concentration of the added [^3H] mesulergine, and Kd is a binding dissociation constant of [^3H] mesulergine which was calculated from a saturated binding assay using the same cell membrane.

Where [4] appears, read: [3H] citalopram binding, read-out: Test Ex. 1: h-SERT binding inhibition constant Ki.

Where a name gives a salt, the structure may show the parent alone. Read-outs that look alike come from different tables or passages of the source.

T1 sequence (P28335 whole entry, looked up): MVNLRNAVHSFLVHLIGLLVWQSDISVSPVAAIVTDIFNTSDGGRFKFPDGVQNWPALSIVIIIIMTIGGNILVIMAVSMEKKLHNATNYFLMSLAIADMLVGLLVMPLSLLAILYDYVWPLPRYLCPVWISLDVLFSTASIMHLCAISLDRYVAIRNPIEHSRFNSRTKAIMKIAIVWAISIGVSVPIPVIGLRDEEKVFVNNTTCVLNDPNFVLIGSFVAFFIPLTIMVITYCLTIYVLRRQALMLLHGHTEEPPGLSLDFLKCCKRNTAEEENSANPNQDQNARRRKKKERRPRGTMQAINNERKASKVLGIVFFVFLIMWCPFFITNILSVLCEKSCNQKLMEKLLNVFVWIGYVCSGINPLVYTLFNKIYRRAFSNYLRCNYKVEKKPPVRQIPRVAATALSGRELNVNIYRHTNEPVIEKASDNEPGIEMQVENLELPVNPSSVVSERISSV

Turning to `CNCc1cc(OCc2cc(Cl)ccc2F)n(CC2CCCCO2)n1.Cl` (single isomer, unassigned; (+)) [Example 475, (+)-1-{5-[(5-chloro-2-fluorobenzyl)oxy]-1-(tetrahydro-2H-pyran-2-ylmethyl)-1H-pyrazol-3-yl}-N-methylmethanamine], the “Test Ex. 3: 5-HT2C receptor agonistic action” value in assay [1] was −95%.
Usually Ki stands for the dissociation constant of the complex between target and ligand, obtained from inhibition or displacement. In the case of `CNCc1cc(OCc2ccccc2)n(Cc2ccccc2)n1` [Example 1, 1-[1-Benzyl-5-(benzyloxy)-1H-pyrazol-3-yl]-N-methylmethanamine hydrochloride], the Ki was determined as 4.9 nM in assay [2] (setting [4]) and 26 nM in assay [3].
`CNCc1cc(OCc2ccc(F)cc2C)n(CC2CCCCC2)n1` [Example 31, 1-{1-(Cyclohexylmethyl)-5-[(4-fluoro-2-methylbenzyl)oxy]-1H-pyrazol-3-yl}-N-methylmethanamine]: the Ki in assay [2] (setting [4]) came out at 0.92 nM; in assay [3], 5.2 nM.
For the molecule `CNCc1cc(OCc2ccc(F)cc2)n(CC2CCCC2)n1` [Example 137, 1-{1-(cyclopentylmethyl)-5-[(4-fluorobenzyl)oxy]-1H-pyrazol-3-yl}-N-methylmethanamine], the Ki in assay [2] (setting [4]) came to 6.6 nM; in assay [3] it was 7.9 nM.
Turning to `CNCc1cc(OCc2cc(F)ccc2F)n(CC2CCCC2)n1` [Example 147, 1-{1-(cyclopentylmethyl)-5-[(2,5-difluorobenzyl)oxy]-1H-pyrazol-3-yl}-N-methylmethanamine], the inhibition constant Ki in assay [2] (setting [4]) was found to be 0.71 nM; in assay [3], 4.8 nM.
`CNCc1cc(OCc2cc(Cl)ccc2F)n(CC2CCCC2)n1` [Example 148, 1-{5-[(5-chloro-2-fluorobenzyl)oxy]-1-(cyclopentylmethyl)-1H-pyrazol-3-yl}-N-methylmethanamine]: the results for the Ki in assay [2] (setting [4]) and in assay [3] were 4.6 nM and 1.9 nM, respectively.
In the case of `CNCc1cc(OCc2ccccc2)n(CCC2CCCC2)n1` [Example 192, 1-[5-(Benzyloxy)-1-(2-cyclopentylethyl)-1H-pyrazol-3-yl]-N-methylmethanamine], the figures for the Ki in assay [2] (setting [4]) and in assay [3] were 0.91 nM and 3.9 nM, respectively.
With `CNCc1cc(OCc2cc(F)ccc2F)n(Cc2ccc(F)cc2)n1` [Example 219, 1-{5-[(2,5-difluorobenzyl)oxy]-1-(4-fluorobenzyl)-1H-pyrazol-3-yl}-N-methylmethanamine], the Ki in assay [2] (setting [4]) worked out at 1.6 nM; in assay [3], 10 nM.
For `CNCc1cc(OCc2cc(F)ccc2F)n(Cc2ccc(C)cc2)n1` [Example 230, 1-{5-[(2,5-difluorobenzyl)oxy]-1-(4-methylbenzyl)-1H-pyrazol-3-yl}-N-methylmethanamine], the Ki amounted to 2.3 nM in assay [2] (setting [4]) and 4.9 nM in assay [3].
Taken in the same sequence, the figures for `CNCc1cc(OCc2cc(F)c(F)cc2F)n(CC2CCCC2)n1` [Example 280, 1-{1-(cyclopentylmethyl)-5-[(2,4,5-trifluorobenzyl)-oxy]-1H-pyrazol-3-yl}-N-methylmethanamine] were 1.9 nM and 9.7 nM.
On to `CNCc1cc(OCc2cc(F)c(F)cc2F)n(CCC(C)(C)C)n1` [Example 284, 1-{1-(3,3-dimethylbutyl)-5-[(2,4,5-trifluorobenzyl)-oxy]-1H-pyrazol-3-yl}-N-methylmethanamine], for which the Ki amounted to 5.7 nM in assay [2] (setting [4]) and 7.9 nM in assay [3].
On to `CNCc1cc(OCc2cc(F)c(F)cc2F)n(Cc2ccc(C)cc2)n1` [Example 286, N-methyl-1-{1-(4-methylbenzyl)-5-[(2,4,5-trifluoro-benzyl)oxy]-1H-pyrazol-3-yl}methanamine], for which the Ki turned out to be 5.5 nM in assay [2] (setting [4]) and 6.6 nM in assay [3].
As for `Fc1ccc(F)c(COc2cc(CNC3CC3)nn2CC2CCCCC2)c1` [Example 342, N-({1-(Cyclohexylmethyl)-5-[(2,5-difluorobenzyl)oxy]-1H-pyrazol-3-yl}methyl)cyclopropanamine], the Ki is 8.5 nM in assay [2] (setting [4]) and 14 nM in assay [3].
For `CNCc1nn(CC2CCCCC2)c(OCc2cc(F)ccc2F)c1F.Cl` [Example 351, 1-{1-(Cyclohexylmethyl)-5-[(2,5-difluorobenzyl)oxy]-4-fluoro-1H-pyrazol-3-yl}-N-methylmethanamine hydrochloride], the values for the Ki in assay [2] and in assay [3] were 0.98 nM and 43 nM, respectively.
Take `CNCc1cc(OCc2ccccc2F)n(CCC(C)C)n1` [Example 381, 1-{5-[(2-fluorobenzyl)oxy]-1-(3-methylbutyl)-1H-pyrazol-3-yl}-N-methylmethanamine]: the Ki in assay [2] (setting [4]) was 3.4 nM; in assay [3], 10 nM.
For the molecule `CNCc1cc(OCc2ccc(F)cc2)n(CC2(C(F)(F)F)CCCC2)n1` [Example 446, 1-(5-[(4-fluorobenzyl)oxy]-1-{[1-(trifluoromethyl)-cyclopentyl]methyl}-1H-pyrazol-3-yl)-N-methylmethanamine], the values for the Ki in assay [2] (setting [4]) and in assay [3] were 7.4 nM and 19 nM, respectively.
Turning to `CNCc1cc(OCc2cc(F)ccc2F)n(CC2(C(F)(F)F)CCCC2)n1` [Example 447, 1-(5-[(2,5-difluorobenzyl)oxy]-1-{[1-(trifluoro-methyl)cyclopentyl]methyl}-1H-pyrazol-3-yl)-N-methylmethanamine], the values for the Ki in assay [2] (setting [4]) and in assay [3] were 0.5 nM and 13 nM, respectively.
For `CNCc1cc(OCc2cc(Cl)ccc2F)n(CC2(C(F)(F)F)CCCC2)n1` [Example 448, 1-(5-[(5-chloro-2-fluorobenzyl)oxy]-1-{[1-(trifluoro-methyl)cyclopentyl]methyl}-1H-pyrazol-3-yl)-N-methylmethanamine], the Ki in assay [2] (setting [4]) was found to be 3.8 nM; in assay [3], 8.8 nM.
